Series [1] addresses T1, MFE-2 (Mus musculus, UniProt P51660).
T1 construct: endogenous in cells; host or cells: BV2 mouse microglial cell line
T1 sequence (P51660 1-735): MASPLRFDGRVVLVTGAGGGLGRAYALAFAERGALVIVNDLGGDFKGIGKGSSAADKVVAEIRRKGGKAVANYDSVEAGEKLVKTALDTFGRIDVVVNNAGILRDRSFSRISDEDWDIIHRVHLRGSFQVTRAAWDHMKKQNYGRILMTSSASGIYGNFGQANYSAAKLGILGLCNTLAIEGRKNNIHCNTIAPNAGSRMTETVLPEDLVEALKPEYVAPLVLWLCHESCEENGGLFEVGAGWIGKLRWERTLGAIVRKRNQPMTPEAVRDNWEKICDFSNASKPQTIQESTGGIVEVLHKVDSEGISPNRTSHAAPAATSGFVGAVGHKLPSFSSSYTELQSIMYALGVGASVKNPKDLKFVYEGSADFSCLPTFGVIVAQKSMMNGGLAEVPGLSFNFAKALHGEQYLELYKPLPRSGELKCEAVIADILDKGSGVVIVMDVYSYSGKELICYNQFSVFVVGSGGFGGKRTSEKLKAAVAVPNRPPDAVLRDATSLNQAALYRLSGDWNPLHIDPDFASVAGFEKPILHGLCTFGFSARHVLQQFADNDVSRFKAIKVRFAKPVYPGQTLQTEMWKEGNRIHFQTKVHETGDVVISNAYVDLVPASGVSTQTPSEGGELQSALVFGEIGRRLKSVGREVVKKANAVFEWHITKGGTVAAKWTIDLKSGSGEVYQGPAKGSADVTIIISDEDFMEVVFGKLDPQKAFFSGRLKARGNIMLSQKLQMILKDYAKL
Briefly: MFE-2 protein expression in BV2 cells with and without LPS stimulation (Western blot). The series is classed as cell-based. The protocol:
Cell treatment: For cell treatment, CKBA was dissolved in DMSO to prepare a stock solution at a concentration of 5mM (1000×), stored at -20°C. For use, the stock solution was added to the cell culture medium at a dilution of 1:1000 and mixed well. The final working concentration was 5µM. Cells were treated for 24-48h and then collected for subsequent experiments.
(§1) The Western blot procedure comprised: fresh cells or tissue samples were immersed in lysis buffer and placed on ice for 10-15 minutes. After observing that the cells/tissues were fully lysed into a homogeneous turbid liquid, the samples were placed on ice for an additional 10 minutes. Centrifugation was performed at 12000 rpm for 10 minutes, and the supernatant was collected. Total protein concentration was determined using the BCA method. Subsequently, steps including loading, electrophoresis, membrane transfer, blocking, and incubation with primary and secondary antibodies were carried out. After developing with ECL chemiluminescent substrate, ImageJ was used to analyze protein content.
Further exploration was conducted to investigate the mode of action of CKBA on the MFE-2 protein.
A general note: Immunoblotting shows a protein as a band on a membrane.

The nature of another series: Solubility description. The series is classed as physicochemical. The following applies: methanol/DMSO; water.
The subject of the next series is AD mice. Put plainly: Behavioral tests (Morris water maze, open field, Y-maze) in AD mice after oral gavage treatment. The format is in vivo. The following applies: compared with vehicle control group. The protocol: For evaluation of therapeutic efficacy in animal models, a 15mg/mL CKBA suspension (solvent: 0.5% sodium carboxymethylcellulose) was administered by oral gavage at a volume of 200µL (equivalent to a dose of 100mg/kg). […] Therapeutic efficacy was evaluated after the treatment period.
• (1) 5xFAD transgenic mice: These mice overexpress mutant human APP (695) carrying the Swedish (K670N, M671L), Florida (I716V) and London (V717I) familial Alzheimer's disease (FAD) mutations, as well as human PS1 carrying two FAD mutations (M146L and L286V). Expressions of both transgenes are driven by the mouse neuron-specific regulatory element Thy1 promoter to achieve overexpression in the brain. […] 5XFAD mice produce almost exclusively Aβ-42 and rapidly accumulate it in the brain. • (2) Preparation of MS mouse (EAE) model and evaluation of CKBA intervention efficacy
Evaluation of the therapeutic effect of CKBA on AD: 8-10 month old 5xFAD mice, 5xFAD mice treated with the small molecule drug CKBA and control mice were subjected to behavioral tests including the Morris water maze, open field test and rotarod test to evaluate higher central nervous system functions. During the behavioral tests, the animal movement trajectory tracking system (EthoVision XT 16.0) was used for full-recording and offline analysis.
Morris water maze: Mice underwent a 5-day adaptive training period, wherein abnormal individuals were excluded. On the final day, after removing the platform, a probe trial was performed. Quantitative data were recorded, including the escape latency after entering the water in each quadrant during the learning phase, the number of platform crossings, and the latency to reach the platform area.
Open field test: The spontaneous activity path of mice in a 50cm*50cm*40 cm novel open field within 5 minutes was recorded. The distance traveled and time spent in the center area were analyzed to assess anxiety-related behavior.
AD mice were treated with CKBA by oral gavage (Figure 5A) for in vivo intervention studies, with continuous intervention for 3 months. […]

The next series has as its system inflammatory microglia. Put plainly: Seahorse energy metabolism (OCR) assay of CKBA-treated, LPS-stimulated BV2 cells. The format is cell-based, mouse. The settings on record: Figure 4B. The protocol:
The specific methods for CKBA treatment and LPS activation of the BV2 cell line were as described above.
The main steps of the Seahorse assay were as follows: Seahorse XF Cell Mitochondrial Stress Analysis: Single cells from brain tissue were obtained using the aforementioned experimental methods. Microglia in brain tissue were collected by flow cytometry sorting. Primary microglia were seeded into Seahorse XF cell culture plates 4-7 days in advance. After the cells were fully adherent, the probe plate was hydrated with double-distilled water and placed in a CO2-free 37°C incubator overnight. The next day, the calibration solution was replaced to further equilibrate and hydrate the probes. On the day of the experiment, the assay solution was prepared, and the corresponding substrates (glucose, pyruvate, glutamine, etc.) from the kit were added. The pH was adjusted to 7.4. […] OCR/ECAR values were recorded at different time points after drug addition. After recording, the cell plate was removed, and the number of microglia per well was counted under an inverted microscope. After normalizing OCR/ECAR to the cell number, intracellular mitochondrial stress levels were quantitatively analyzed.
Seahorse energy metabolism analysis was performed. By measuring the changes in oxygen consumption reagents and dissolved oxygen content in the cell culture medium, the OCR of the cells was calculated.

The target of series [2] is T1, MFE-2. Briefly: CKBA-biotin pull-down and Western blot for direct binding to MFE-2. The following applies: microglial cell line (BV2), CKBA-biotin 5µM, 6 hours. The protocol: CKBA pull-down assay was performed to detect the direct interaction between CKBA and MFE-2. Specifically, CKBA was labeled with Biotin. CKBA-biotin was added to the culture medium at a final concentration of 5µM for 6 hours. Cells were then washed, lysed, and incubated with Streptavidin magnetic beads under rotation at 4°C for 3 hours. After washing the beads 4 times, loading buffer was added, and the samples were boiled at 96°C for 5 minutes. Western blot (WB) was used to detect MFE-2 protein levels to assess the direct interaction between the small molecule compound and MFE-2.
as §1

For series [3] the following is noted: mouse, po, 100 mg/kg.
Experimental: Based on the above optimized method, the absolute content of CKBA in brain tissue was further detected. For absolute content detection of CKBA in brain tissue, normal mice were administered CKBA by oral gavage. One hour after administration, the mice were perfused, and fresh brain tissue and serum were collected for mass spectrometry analysis.
Another series has as its system LPS-activated BV2 cells. Put plainly: CCK-8 assay of CKBA-treated LPS-activated BV2 cells. The format is cell-based, mouse. The settings on record: 0.1-20 µM CKBA, 24 hours. The protocol: The mouse microglial cell line BV2 was seeded into 96-well flat-bottom plates and cultured overnight to allow full cell adherence. BV2 cells were activated by stimulation with LPS. LPS (Sigma) stock solution (5 mg/mL) was added to the BV2 cell culture supernatant and mixed well. After 12 hours of activation, cell morphology was observed. […]
Subsequently, a CCK8 assay (Dojindo, Japan) was performed to measure cell viability. The cell culture medium was removed from the 96-well plate, and 100 µL of diluted CCK8 reaction solution was added to each well. The plate was protected from light. Incubation conditions: 37°C incubator for about 1-2 hours. After 1 hour of incubation, the plate was removed, and the colorimetric (orange) signal was detected using a multifunctional microplate reader (Tecan Infinite 200 pro, Austria). Depending on the signal intensity, the plate could be further incubated for 1.5/2 hours, and the signal was measured at multiple time points. The colorimetric intensity values were recorded, and subsequent statistical analysis and graphing were performed using SPSS.
In vitro cell experiments were performed to analyze the effect of CKBA on the inflammatory activation of microglia.
(Tetrazolium assays rely on reduction of a dye to a coloured formazan, in cell work by metabolically active cells.)

Turning to `C[C@H]1[C@H](C)CC[C@]2(C)CC[C@]3(C)C(=CC(=O)[C@@H]4[C@@]5(C)CC[C@@H](OC(=O)C6CCCCC6)[C@](C)(C(=O)O)[C@@H]5CC[C@]43C)[C@H]12` [CKBA, 3-o-α-cyclohexanoyl-11-keto-β-boswellic acid], on MFE-2 [1] (LPS-stimulated BV2 cells), the “expression and content of MFE-2 after LPS stimulation” value was “effectively maintained the expression and content of MFE-2”. In addition, the “baseline expression level of MFE-2” value on MFE-2 [1] (normal BV2 cells, no LPS) is on record as “did not affect the baseline expression level of MFE-2”. In the series “Solubility description”, the solubility entry was “lipophilic, soluble in methanol/DMSO, insoluble in water”. Moreover, in the series on AD mice, the platform crossover number result is given as “significant increase”, the “time spent in the opposite quadrant” value is “significant decrease” and the “time spent in the specific effective area (center area) as a percentage of total movement time” value was “significant increase”. Further, the “activity of inflammatory microglia (OCR)” value with inflammatory microglia was “significantly inhibited the activity of inflammatory microglia”. Also, the “binding to MFE-2 protein (pull-down)” value at MFE-2 [2] was “could bind to the MFE-2 protein”. For the same compound, the blood-brain barrier permeability result in series [3] is “could effectively cross the blood-brain barrier”. For the same compound, in the series with LPS-activated BV2 cells, the “expansion of inflammatory microglia” value was “significantly inhibited the expansion of inflammatory microglia” and the peroxisome stability entry is reported as “maintained peroxisome stability”.

For the origin of these results see patent publication EP4810046A1, “USE OF PENTACYCLIC TRITERPENE COMPOUND TARGETING HYDROXYSTEROID 17-B DEHYDROGENASE 4” (Jiangsu Bcy Pharm. Co., Ltd, priority 2023, dated 2025).
